# Reference: patent publication US20210046071A1, “TETRACYCLIC COMPOUNDS AND THEIR SALTS, COMPOSITIONS, AND METHODS FOR THEIR USE” (Senhwa Biosciences, Inc., priority 2019, published 2021)
# Assays:
# Assay type in all cases: cell-based
# Hs 605.T = test: Alamar Blue cell viability assay, Hs 605.T; settings: Breast
# Method: (§1) The effect of Compound I on cell viability was assessed by Alamar Blue assay of metabolic activity in various cancer cell lines.
# MV 4; 11 = test: Alamar Blue cell viability assay, MV 4; 11; settings: Homo sapiens, MV4-11, 11, Leukemia
# Method: as §1
# PC-3 = test: Alamar Blue cell viability assay, PC-3; settings: Homo sapiens; PC-3, Prostate
# Method: as §1
smiles,measurement,setting,value
"Cc1cnc(CNC(=O)c2c(=O)c3ccc(N4CCCN(C)CC4)nc3n3c2sc2ccccc23)cn1 [Compound I, 2-(4-Methyl-[1,4]diazepan-1-yl)-5-oxo-5H-7-thia-1,11b-diaza-benzo[c]fluorene-6-carboxylic acid (5-methyl-pyrazin-2-ylmethyl)-amide]",EC50,Hs 605.T,116 nM
same,EC50,MV 4; 11,12 nM
same,EC50,PC-3,1100 nM
